Source: US20030220361A1, “Nicotinamide derivatives and a tiotropium salt in combination for the treatment of diseases” (priority 2002, published 2003)

Tested on: TNFα release from human peripheral blood mononuclear cells
Test: Inhibition of LPS-stimulated TNFα release from human peripheral blood mononuclear cells (TNFα screen)
Assay type: cell-based
Settings: human PBMC, LPS stimulation, 18 hours incubation, TNFα in supernatant by ELISA
Description: Venous blood is collected from healthy volunteers and the mononuclear cells purified by centrifugation through Histopaque (Ficoll) cushions. TNFα production from these cells is stimulated by addition of lipopolysaccharide. After 18 hours incubation in the presence of LPS, the cell supernatant is removed and the concentration of TNFa in the supernatant determined by ELISA. Addition of PDE4 inhibitors reduces the. amount of TNFQ produced. An IC50 is determined which is equal to the concentration of compound that gives 50% inhibition TNFα production as compared to the LPS stimulated control wells.

| Structure (SMILES) | IC50 [nM] |
| --- | --- |
| O=C(NCc1ccccc1O)NC1CCC(NC(=O)c2cc(F)cnc2Oc2ccc(F)cc2)CC1 (stereo not drawn) [Example 72, Syn-5-Fluoro-2-(4-fluoro-phenoxy)-N-{4-[3-(2-hydroxy-benzyl)-ureido]-cyclohexyl}-nicotinamide] | 1.1 |
| COc1cccc(Oc2ncc(F)cc2C(=O)N[C@H]2CC[C@@H](NC(=O)c3ccc(OC)cc3O)CC2)c1 [Example 197] | 1.8 |
| O=C(NC1CCN(C(=O)c2ccc3ccccc3c2O)CC1)c1cc(F)cnc1Oc1ccc(F)cc1 [Example 81] | 30 |
